# Measurements: patent publication US5369111A, “Modulator agent and use thereof” (University of Vermont, priority 1992, dated 1994)
# pIC50: −log10 of the molar value.
# What was measured:
# S180/A10 cells = experiment: Modulator potency in MDR cells: reversal of acquired resistance, S180/A10; assay type: cell-based, murine; conditions: for reversal of high level ADM resistance: 90-fold resistance, A10; for Modulator potency in MDR cells (minimal concentration restoring parental drug sensitivity), VBL: drug resistance level 10; for Modulator potency in MDR cells (minimal concentration restoring parental drug sensitivity), VCR: drug resistance level 17
# Method: (§1) Mid-exponential cultures were used for all assays. The RCC-2 and RCC-5 cell lines were seeded into 24-well plates at 2×10^4 cells/well and allowed to attach to the substratum for 16-18 h prior to treatment. The S180 cell lines were seeded into culture tubes at 1×10^5 cells/ml and treated immediately. Cytotoxicity was determined by quantitation of population growth after 72 h incubation by electronic particle counter (Coulter Electronics, Hialeah, Fla.). The human tumor cell lines were used in a clonogenic assay for cytotoxicity. Cells were seeded at 300 cells/dish, incubated overnight and then treated. Colonies were scored 7-11 days later. In all assays of analog modulation of drug sensitivity, the analog was added minutes prior to the addition of cytotoxic drug.
# (§2) To evaluate the ability of vindoline and the two diastereoisomeric VBL analogs to modulate the MDR phenotype (acquired resistance) of the A3 and A10 cell stains, we determined the concentration of compound required to restore drug sensitivities to parental levels. This was done by exposing the MDR cell line to a concentration range of modulator in the presence VBL, VCR and ADM at the respective IC70s of the parental cell line. The cytotoxicity curves for A3 and A10 cells, shown in FIG. 5, are distinctive among the three vinca alkaloids examined. In each cell line, there was a minimum concentration of modulator that elicited 70% growth inhibition for each drug - i.e. the reversing concentration.
# (§3) *The minimal concentration of modulator required to restore the drug
# (§4) sensitivity of S180/MDR cell strains to that of parental S180 cells. Data
# (§5) are the averages of 2-3 separate experiments, S.D. ≤20%.
# RCC-5 cells = experiment: Modulation of intrinsic drug resistance, RCC-5; assay type: cell-based, rat; conditions: RCC-5; IC50 drug alone / IC50 drug + modulator, at nontoxic concentration limit
# Method: as §1
# (§6) *calculated as the IC50 of the drug alone divided by the IC50 o
# (§7) the [drug modulator] combination. Data are presented from tretments with
# (§8) the nontoxic concentration limit of each analog as noted.
# FIG. 9 represents the modulation of VCR sensitivity in the RCC-12 (A) and RCC-5 (B) cell lines by the analog C-20'-deoxy deethyl vincovaline. Population growth was determined after 72 hours incubation in the absence (o), or presence of 10 μM (o), 20 μM (Δ), or 50 μM of analog. Data presented are from a typical experiment.
# [1] = test system: S180 MDR cell strains A3 and A10; experiment: Modulation of acquired drug resistance in the S180 MDR cell strains A3 and A10; assay type: cell-based, murine; conditions: VBL, VCR and ADM
# Method: as §1, §2
# FIG. 5 represents the modulation of multidrug resistance in the MDR cell strains by the vinca alkaloids. Vindoline (A), vincovaline (B), or the analog C-20'-deoxy vincovaline (C) was added, at various concentrations, to A3 (closed symbols) or A10 (opened symbols) cell cultures containing the parental IC70 of each drug: 2.0×10^-7 M. ADM (circles: 1.5×10^-8 M VBL (triangles); and 4.5×10^-8 M; VCR (squares). Population growth was determined 72 hours later.
# FIG. 6 represents the relationship between cellular drug resistance level and the minimal modulator concentration required for complete reversal of drug resistance. The drugs examined were ADM (o), VBL (Δ), and VCR (.quadrature.). The amount (concentration) of modulator, necessary to reverse each level of drug resistance contained in the A3 and A10 cell lines, was determined from data such as those of FIG. 5. The values presented were averaged from duplicate samples of two separate experiments, S.D.<15% of the mean. The arrows denote the non-toxic concentration limit for the modulator; in the case of Vincovaline this value is dependent on the MDR cell strain, 2×10^-5 M, A3; 5×10^-5 M. A10.
# FIG. 11 represents the modulation of multidrug resistance in the S180 MDR cell strains A3 and A10. The cellular drug resistance level is plotted against the minimal concentration of C-20'-deoxy deethyl vincovaline required for the complete reversal of drug resistance to ADM (o), VBL (Δ), and VCR (.quadrature.). In the case of high level ADM resistance […], the sensitivity of the cells was restored to 80% of the parental value. The arrow denotes the non-toxic concentration limit of the analog.
# [2] = test system: S180/MDR cell system and rat colon cancer cell lines; experiment: Cytotoxicity in the S180/MDR cell system and the rat colon cancer cell lines; assay type: cell-based, mouse; conditions: S-180, 72 h
# Text: (§9) The analogs were examined in a panel of tumor cell lines of both intrinsic and acquired drug resistance, as described in Table 1. The rat colon adenocarcinoma cell lines RCC-2 and RCC-5 (ref. 13) were maintained in Ham's F12 medium supplemented with 5% heat-inactivated, fetal bovine serum (Sterile Systems. Hyclone, Logan, Utah). The two rat colon cancer cell lines differ in their degree of cellular differentiation; whereas the RCC-2 cell line is undifferentiated, the RCC-5 cell line is highly mucinous. The human epidermoid carcinoma cell line KB-3-1 and its MDR variant KB-Vl, selected by VBL treatment (ref. 14; courtesy of M. Gottesman. National Cancer Institute), was maintained in DMEM medium supplemented with 10%, heat-inactivated, fetal bovine serum. The murine sarcoma cell line […] and its MDR strains A3 and A10 selected by ADM treatment (ref. 15; courtesy of T. Tritton, Dept. Pharmacology, Univ. Vermont). were maintained in DMEM medium supplemented with 10% heat-inactivated, horse serum (Hazelton Biolog. Lenexa, Kans.). Stock cultures were subcultured twice weekly upon reaching the late exponential phase of population growth: population doubling times were 18-24 h. Antibiotics were not used in stock or experimental cultures. The MDR cell strains were grown in drug-free media for 48 h prior to experimental use.
# as §1
# S180 cells, parental = experiment: Modulation of intrinsic drug resistance, parental S180; assay type: cell-based, murine; conditions: S180; IC50 drug alone / IC50 drug + modulator, at nontoxic concentration limit
# Method: as §1
# The ability of the compounds to modulate drug sensitivity in parental cells was studied over a range of concentrations of each compound, from 10^-6 M to the non-toxic (IC10-20) or solubility limit. […] From such experiments, we determined a sensitivity index derived from the IC50 of the drug without modulator treatment divided by the drug IC50 at each concentration of modulator.
# When the sensitivity index for each drug, VBL, VCR and ADM is plotted versus the modulator concentration (FIG. 4), we can compare the relative potencies of the compounds as modulators of drug toxicity to the parental S180 cells.
# as §6, §7
# FIG. 4 represents the potency of the vinca alkaloid compounds as modulators of drug sensitivity in S180 cells. The enhancement of sensitivity was calculated as the sensitivity index=IC50 of the drug alone divided by the IC50 of the drug+modulator. The IC50s for ADM (o) VBL (Δ), or VCR (.quadrature.) were determined over a concentration range of each modulator from data such as those depicted in FIG. 3. The values presented were averaged from duplicate samples of two separate experiments, S.D. <15% of the mean.
# [3] = test system: parental cell lines (S180, RCC-2, RCC-5); experiment: Modulation of intrinsic resistance in the parental cell lines (S180, RCC-2, RCC-5); assay type: cell-based, mouse, rat
# Method: as §1, §6, §7, §8
# [4] = Inhibition of population growth (cytotoxicity), S180 sarcoma, parental; assay type: cell-based, mouse; conditions: mouse, s180 cells; S180; Table III; read-out: Modulator concentration (nontoxic concentration limit of the analog)
# Text: as §9, §1
# RCC-2 cells = experiment: Modulation of intrinsic drug resistance, RCC-2; assay type: cell-based, rat; conditions: IC50 drug alone / IC50 drug + modulator, at nontoxic concentration limit
# Method: as §1, §6, §7, §8
# [5] = Inhibition of population growth (cytotoxicity), rat colon adenocarcinoma RCC-2; assay type: cell-based; conditions: rat, rcc-2 cells; RCC-2; Table III; read-out: Modulator concentration (nontoxic concentration limit of the analog)
# Text: as §9, §1
# S180/A3 cells = experiment: Modulator potency in MDR cells: reversal of acquired resistance, S180/A3; assay type: cell-based, murine; conditions: for Modulator potency in MDR cells (minimal concentration restoring parental drug sensitivity), ADM: drug resistance level 15; for Modulator potency in MDR cells (minimal concentration restoring parental drug sensitivity), VBL: drug resistance level 3; for Modulator potency in MDR cells (minimal concentration restoring parental drug sensitivity), VCR: drug resistance level 7
# Method: as §1, §2, §3, §4, §5
# [6] = Inhibition of population growth (cytotoxicity), rat colon adenocarcinoma RCC-5; assay type: cell-based; conditions: rat, rcc-5 cells; RCC-5; Table III; read-out: Modulator concentration (nontoxic concentration limit of the analog)
# Text: as §9, §1
SMILES,reversal of high level ADM resistance (S180/A10 cells; ADM) [%],"Modulator potency in MDR cells (minimal concentration restoring parental drug sensitivity), VBL (S180/A10 cells) [µM]","Modulator potency in MDR cells (minimal concentration restoring parental drug sensitivity), VCR (S180/A10 cells) [µM]","Maximum sensitization of parental cells by modulator, drug ADM (RCC-5 cells)","Maximum sensitization of parental cells by modulator, drug VBL (RCC-5 cells)","Maximum sensitization of parental cells by modulator, drug VCR (RCC-5 cells)",range of resistance levels over which parental sensitivity was restored [1],pIC50 [2],"Maximum sensitization of parental cells by modulator, drug ADM (S180 cells, parental)","Maximum sensitization of parental cells by modulator, drug VBL (S180 cells, parental)","Maximum sensitization of parental cells by modulator, drug VCR (S180 cells, parental)",modulation of intrinsic cellular resistance to ADM and/or VCR (in words) [3],effect on the sensitivity of parental cells to VBL (in words) [3],enhancement of VCR cytotoxicity in the parental cell lines [3],MNTC at 72 h [4] [µM],"Maximum sensitization of parental cells by modulator, drug ADM (RCC-2 cells)","Maximum sensitization of parental cells by modulator, drug VBL (RCC-2 cells)","Maximum sensitization of parental cells by modulator, drug VCR (RCC-2 cells)",MNTC at 72 h [5] [µM],"Modulator potency in MDR cells (minimal concentration restoring parental drug sensitivity), ADM (S180/A3 cells) [μM]",other results
"CCC1CC2CN(CCc3c([nH]c4ccccc34)C(C(=O)OC)(c3cc4c(cc3OC)N(C)C3C(O)(C(=O)OC)C(OC(C)=O)C5(CC)C=CCN6CCC43C65)C2)C1 (stereo not drawn) [analog n° 353, C-14'-epi-C-20'-deoxy-VBL]",80,10.0,13.0,6.4,1.6,3.5,3-90 fold,≤ 5.30,4.0,1.4,7.0,modulated intrinsic cellular resistance to ADM and/or VCR,less effect on the sensitivity of parental cells to VBL,7-18 fold,40,2.1,1.8,7.3,10,35.,"Modulator potency in MDR cells, ADM (value marked #) (S180/A10 cells; ADM, drug resistance level 90, #: significant (>50%) reversal at the maximum nontoxic concentration): 40. μM; Modulator potency in MDR cells (minimal concentration restoring parental drug sensitivity), VBL (S180/A3 cells): 4.0 µM; Modulator potency in MDR cells (minimal concentration restoring parental drug sensitivity), VCR (S180/A3 cells): 4.0 µM; MNTC at 72 h [6]: 10 µM"
"CC[C@H]1C[C@@H]2CN(CCc3c([nH]c4ccccc34)[C@](C(=O)OC)(c3cc4c(cc3OC)N(C)[C@H]3[C@@](O)(C(=O)OC)[C@H](OC(C)=O)[C@]5(CC)C=CCN6CC[C@]43[C@@H]65)C2)C1 [analog n° 354, C-20'-deoxy-C-16', 20' epi VBL]",80,10.0,20.0,5.3,1.9,18.0,3-90 fold,≤ 5.30,5.0,1.0,3.0,modulated intrinsic cellular resistance to ADM and/or VCR,less effect on the sensitivity of parental cells to VBL,7-18 fold,20,1.9,1.2,4.0,5,25.,"Modulator potency in MDR cells (minimal concentration restoring parental drug sensitivity), ADM (S180/A10 cells; ADM, drug resistance level 90): 40. μM; Modulator potency in MDR cells (minimal concentration restoring parental drug sensitivity), VBL (S180/A3 cells): 1.7 µM; Modulator potency in MDR cells (minimal concentration restoring parental drug sensitivity), VCR (S180/A3 cells): 10.0 µM; MNTC at 72 h [6]: 5 µM"
